From article PMC12649549, “Sequence Permutation Generated Lysine and Tryptophan-Rich Antimicrobial Peptides with Enhanced Therapeutic Index” (Antibiotics, 2025)
Read-outs that look alike come from different tables or passages of the source.

Assays:
[1] = tested on: Pseudomonas aeruginosa Migula (ATCC 27853)
Procedure: (§1) The antibacterial and salt-resistant activity of the peptides was tested using Escherichia coli (ATCC 25922), Pseudomonas aeruginosa Migula (ATCC 27853), Acinetobacter sp. (BCRC number 14B0091, BCRC number 14B0097, and BCRC number 14B0100), and Staphylococcus aureus sp. strains (ATCC 25923, ATCC 33591, ATCC 33592, ATCC 33593, and ATCC 6538). All bacteria were obtained from the Food Industry Research and Development Institute (Hsinchu, Taiwan) and cultured in sterilized Müller-Hinton (MH) broth at 37 °C and 200 rpm for 8 h. The inoculum concentrations were determined by measuring the optical density at 600 nm (OD 600 = 1, approximately 10^8 CFU/mL) using an Ultrospec 2100 pro UV-Visible spectrophotometer (Biochrom Ltd., Cambridge, UK) after 8 h of culture.
(§2) The antibacterial activities of the peptides in Müller-Hinton (MH) broth and modified LYM broth were determined using the standard broth microdilution method as per Clinical and Laboratory Standards Institute (CLSI) guidelines. The LYM broth was prepared with specific components and adjusted to different conditions, including varying concentrations of NaCl and MgCl2, and different pH levels. To prepare the LYM broth, 5.4 mM KCl, 5.6 mM Na2HPO4, 0.5 mM MgSO4, and 1.0 mM sodium citrate were added. Additionally, 0.4 mg of ZnCl2, 2.0 mg of FeCl3·6H2O, 0.1 mg of CuSO4·5H2O, 0.1 mg of MnSO4·H2O, 0.1 mg of Na2B4O7∙10H2O, 700 mg of amino acid mixtures without tryptophan (Takara Bio Inc., San Jose, CA, USA), and 20 mg of L-tryptophan were added per liter of medium. The pH was adjusted to 7.4, and a vitamin mixture (100X, Sigma) and glucose concentration of 2% were added. For different conditions of LYM broth, NaCl concentrations of 300, 200, 150, and 50 mM, MgCl2 concentrations of 2.5, 1.5, and 0.5 mM, and pH levels of 6.5, 5.5, and 4.5 were adjusted. Bacterial strains were incubated in MH broth overnight, regrown, and diluted to a final concentration of 5 × 10^5 CFU/mL. Peptides were added to each well at final concentrations of 50, 25, 12.5, 6.25, 3.13, 1.56, and 0.78 µg/mL, and 99 µL of diluted microbes was loaded into each well of a polypropylene 96-well plate. […] The Morpheus HeatMap software (https://software.broadinstitute.org/morpheus/) was used to display MIC values on a color scale. All experiments were independently repeated three times.

[2] = tested on: A. baumannii 14B0091 (Acinetobacter sp., BCRC number 14B0091)
Procedure: as §1, §2

[3] = tested on: A. baumannii 14B0097 (Acinetobacter sp., BCRC number 14B0097)
Procedure: as §1, §2

[4] = tested on: Escherichia coli (ATCC 25922)
Procedure: as §1, §2

S. aureus ATCC 6538 = tested on: S. aureus ATCC 6538
Procedure: as §1, §2

S. aureus ATCC 25923 = tested on: S. aureus ATCC 25923
Procedure: as §1, §2

[5] = tested on: Both Gram-positive and -negative bacteria; test: Geometric mean MIC, therapeutic index and fold changes of MIC, whole panel of strains; format: cell-based; conditions: for weakening of antibacterial efficacy (MIC): LYM broth
Procedure: (§3) In this study, we aimed to investigate the potential of W5K series peptides for therapeutic use. To evaluate their efficacy for antibacterial therapy, we used the Therapeutic Index (TI) as a measure of their cell selectivity. The TI was calculated as the ratio of the concentration causing 10% hemolysis of human red blood cells (HC10) to the geometric mean minimum inhibitory concentration (GM) of the peptides against both Gram-negative and Gram-positive bacteria. This parameter was used to quantitatively assess the balance between antibacterial potency and cytotoxicity among the W5K derivatives.
as §2

Gram-negative bacteria = test: Geometric mean MIC and therapeutic index, Gram-negative bacteria; format: cell-based
Procedure: as §3, §2

[6] = LYM broth, 0 mM NaCl, 16 h, 37 °C
[7] = LYM broth, 50 mM NaCl, 16 h, 37 °C
[8] = LYM broth, 100 mM NaCl, 16 h, 37 °C
[9] = LYM broth, 200 mM (NaCl), 16 h, 37 °C
[10] = LYM broth, 300 mM (NaCl), 16 h, 37 °C
[11] = MH broth, 5 × 10^5 CFU/mL, 16 h, 37 °C, repeated three times

Ac-KKKKWRKWLKWLA-NH2 [Peptide W5K11]
MIC [1, 6]: 1.56 µg/mL | MIC ([1]; LYM broth, 0.5 mM MgCl2): 1.56 µg/mL | MIC ([1]; LYM broth, 1.5 mM MgCl2): 1.56 µg/mL | MIC ([1]; LYM broth, 2.5 mM MgCl2): 3.13 µg/mL | MIC [1, 7]: 1.56 µg/mL | MIC [1, 8]: 1.56 µg/mL | MIC [1, 9]: 3.13 µg/mL | MIC [1, 10]: 6.25 µg/mL | MIC ([1]; LYM broth, pH 4.5): 1.56 µg/mL | MIC ([1]; LYM broth, pH 5.5): 1.56 µg/mL | MIC ([1]; LYM broth, pH 6.5): 1.56 µg/mL | MIC [1, 11]: 3.13 µg/mL | MIC [2, 6]: 1.56 µg/mL | MIC ([2]; LYM broth, 0.5 mM MgCl2): 1.56 µg/mL | MIC ([2]; LYM broth, 1.5 mM MgCl2): 1.56 µg/mL | MIC ([2]; LYM broth, 2.5 mM MgCl2): 1.56 µg/mL | MIC [2, 7]: 1.56 µg/mL | MIC [2, 8]: 1.56 µg/mL | MIC [2, 9]: 1.56 µg/mL | MIC [2, 10]: 1.56 µg/mL | MIC ([2]; LYM broth, pH 4.5): 1.56 µg/mL | MIC ([2]; LYM broth, pH 5.5): 1.56 µg/mL | MIC ([2]; LYM broth, pH 6.5): 1.56 µg/mL | MIC [2, 11]: 0.78 µg/mL | MIC [3, 6]: 1.56 µg/mL | MIC ([3]; LYM broth, 0.5 mM MgCl2): 1.56 µg/mL | MIC ([3]; LYM broth, 1.5 mM MgCl2): 1.56 µg/mL | MIC ([3]; LYM broth, 2.5 mM MgCl2): 1.56 µg/mL | MIC [3, 7]: 1.56 µg/mL | MIC [3, 8]: 1.56 µg/mL | MIC [3, 9]: 1.56 µg/mL | MIC [3, 10]: 1.56 µg/mL | MIC ([3]; LYM broth, pH 4.5): 1.56 µg/mL | MIC ([3]; LYM broth, pH 5.5): 1.56 µg/mL | MIC ([3]; LYM broth, pH 6.5): 1.56 µg/mL | MIC [3, 11]: 1.56 µg/mL | MIC [4, 6]: 1.56 µg/mL | MIC ([4]; LYM broth, 0.5 mM MgCl2): 3.13 µg/mL | MIC ([4]; LYM broth, 1.5 mM MgCl2): 3.13 µg/mL | MIC ([4]; LYM broth, 2.5 mM MgCl2): 3.13 µg/mL | MIC [4, 7]: 1.56 µg/mL | MIC [4, 8]: 3.13 µg/mL | MIC [4, 9]: 3.13 µg/mL | MIC [4, 10]: 6.25 µg/mL | MIC ([4]; LYM broth, pH 4.5): 1.56 µg/mL | MIC ([4]; LYM broth, pH 5.5): 1.56 µg/mL | MIC ([4]; LYM broth, pH 6.5): 1.56 µg/mL | MIC [4, 11]: 6.25 µg/mL | MIC (S. aureus ATCC 6538; [6]): 1.56 µg/mL | MIC (S. aureus ATCC 6538; LYM broth, 0.5 mM MgCl2): 1.56 µg/mL | MIC (S. aureus ATCC 6538; LYM broth, 1.5 mM MgCl2): 1.56 µg/mL | MIC (S. aureus ATCC 6538; LYM broth, 2.5 mM MgCl2): 1.56 µg/mL | MIC (S. aureus ATCC 6538; [7]): 1.56 µg/mL | MIC (S. aureus ATCC 6538; [8]): 3.13 µg/mL | MIC (S. aureus ATCC 6538; [9]): 3.13 µg/mL | MIC (S. aureus ATCC 6538; [10]): 6.25 µg/mL | MIC (S. aureus ATCC 6538; LYM broth, pH 4.5): 3.13 µg/mL | MIC (S. aureus ATCC 6538; LYM broth, pH 5.5): 1.56 µg/mL | MIC (S. aureus ATCC 6538; LYM broth, pH 6.5): 1.56 µg/mL | MIC (S. aureus ATCC 6538; [11]): 3.13 µg/mL | MIC (S. aureus ATCC 25923; [6]): 1.56 µg/mL | MIC (S. aureus ATCC 25923; LYM broth, 0.5 mM MgCl2): 1.56 µg/mL | MIC (S. aureus ATCC 25923; LYM broth, 1.5 mM MgCl2): 1.56 µg/mL | MIC (S. aureus ATCC 25923; LYM broth, 2.5 mM MgCl2): 1.56 µg/mL | MIC (S. aureus ATCC 25923; [7]): 1.56 µg/mL | MIC (S. aureus ATCC 25923; [8]): 3.13 µg/mL | MIC (S. aureus ATCC 25923; [9]): 3.13 µg/mL | MIC (S. aureus ATCC 25923; [10]): 6.25 µg/mL | MIC (S. aureus ATCC 25923; LYM broth, pH 4.5): 3.13 µg/mL | MIC (S. aureus ATCC 25923; LYM broth, pH 5.5): 1.56 µg/mL | MIC (S. aureus ATCC 25923; LYM broth, pH 6.5): 1.56 µg/mL | MIC (S. aureus ATCC 25923; [11]): 3.13 µg/mL | GM G−/+ (geometric mean of the MIC values) [5]: 3.3 µg/mL | Therapeutic Index (TI) G−/+ ([5]; HC10/GM, both Gram-positive and -negative bacteria): 21.2 | weakening of antibacterial efficacy (MIC) ([5]; 300 mM NaCl): up to 3 fold | weakening of antibacterial efficacy (MIC) ([5]; MgCl2 rising above 0.5 mM): up to 2 fold | GM G− (geometric mean of the MIC values) (Gram-negative bacteria): 2.1 µg/mL | Therapeutic Index (TI) G− (Gram-negative bacteria; HC10/GM, Gram-negative bacteria): 34.5
